Source: the RepoRT retention time repository (doi:10.1021/acs.analchem.2c02893)

assay: RP, Thermo Scientific Acclaim RSLC 120 C18, 100 × 2.1 mm, 2.2 µm, 30 °C, 0.2 mL/min, estimated dead time 1.1 min; A: 90% water + 10% methanol + 0.01% formic acid + 5 mM ammonium formate, pH 3.61; B: methanol + 0.01% formic acid + 5 mM ammonium formate, pH 3.61; gradient (min/%B) 0/1 1/1 2/39 13/99.9 15/99.9 15.1/1 20.1/1; settings: stereoisomer not certain

| LC retention time [min] | Structure (SMILES) |
| --- | --- |
| 8.94 | CNC1CCC(c2ccc(Cl)c(Cl)c2)c2ccccc21 (stereo unspecified) [Sertraline] |
| 10.9 | CCCc1nn(C)c2c(=O)[nH]c(-c3cc(S(=O)(=O)N4CCCCC4)ccc3OCC)nc12 [Sildenafil Norneo] |
| 9.91 | CCCc1nn(C)c2c(=S)nc(-c3cc(S(=O)(=O)N4CC(C)NC(C)C4)ccc3OCC)[nH]c12 (stereo unspecified) [Sildenafil Thiodimethyl] |
| 10.6 | CCCc1nn(C)c2c(=S)nc(-c3cc(S(=O)(=O)N4CCN(CC)CC4)ccc3OCC)[nH]c12 [Sildenafil Thiohomo] |
| 11.5 | CCCc1nn(C)c2c(=O)[nH]c(-c3cc(S(=O)(=O)N4CCN(Cc5ccccc5)CC4)ccc3OCC)nc12 [Sildenafil-Benzyl] |
| 7.6 | CCCc1nn(C)c2c(=O)[nH]c(-c3cc(S(=O)(=O)N4CC(C)NC(C)C4)ccc3OCC)nc12 (stereo unspecified) [Sildenafil-Dimethyl] |
| 7.83 | CCCc1nn(C)c2c(=O)[nH]c(-c3cc(S(=O)(=O)N4CCN(CCO)CC4)ccc3OCC)nc12 [Sildenafil-Hydroxyhomo] |
| 10.5 | CCCc1nn(C)c2c(=S)nc(-c3cc(S(=O)(=O)N4CCN(CCO)CC4)ccc3OCC)[nH]c12 [Sildenafil-Hydroxythiohomo] |
| 10.6 | CCCc1nn(C)c2c(=S)nc(-c3cc(S(=O)(=O)N4CCN(C)CC4)ccc3OCC)[nH]c12 [Sildenafil-Thio] |
| 7.88 | CCCc1nn(C)c2c(=O)[nH]c(-c3cc(S(=O)(=O)N4CCN(C)CC4)ccc3OCC)nc12 [Sildenafil] |
| 4.21 | CCNc1nc(NCC)[nH]c(=O)n1 [Simazine-2-hydroxy] |
| 12.6 | CCC(C)(C)C(=O)OC1CC(C)C=C2C=CC(C)C(CCC3CC(O)CC(=O)O3)C21 (stereo unspecified) [Simvastatin] |
| 5.08 | NC(CC(=O)N1CCn2c(nnc2C(F)(F)F)C1)Cc1cc(F)c(F)cc1F (stereo unspecified) [Sitagliptin] |
| 7.95 | O=C(OC1CN2CCC1CC2)N1CCc2ccccc2C1c1ccccc1 (stereo unspecified) [Solifenacin] |
| 2.96 | CC(C)NCC(O)c1ccc(NS(C)(=O)=O)cc1 (stereo unspecified) [Sotalol] |
| 11.8 | CCC1CCCC(OC2CCC(N(C)C)C(C)O2)C(C)C(=O)C2=CC3C(C=C(C)C4CC(OC5OC(C)C(OC)C(OC)C5OC)CC43)C2CC(=O)O1 (stereo unspecified) [Spinosad D] |
| 8.23 | CCOC(=O)C(CCc1ccccc1)NC(C)C(=O)N1CC2(CC1C(=O)O)SCCS2 (stereo unspecified) [Spirapril] |
| 9.24 | CC(=O)SC1CC2=CC(=O)CCC2(C)C2CCC3(C)C(CCC34CCC(=O)O4)C12 (stereo unspecified) [Spironolactone] |
| 14.9 | Cc1ccc(N=Nc2c(O)ccc3ccccc23)c(C)c1 [Sudan II] |
| 13.6 | Oc1ccc2ccccc2c1N=Nc1ccccc1 [Sudan I] |

| LC retention time [min] | Structure (SMILES) |
| --- | --- |
| 4.72 | Nc1ccc(S(=O)(=O)NC(=O)c2ccccc2)cc1 [Sulfabenzamide] |
| 4.56 | Nc1ccc(S(=O)(=O)Nc2ccc(Cl)nn2)cc1 [Sulfachloropyridazine] |
| 3.96 | Cc1nc(C)c(Cl)c(NS(=O)(=O)c2ccc(N)cc2)n1 [Sulfaclomide] |
| 5.45 | Nc1ccc(S(=O)(=O)Nc2cncc(Cl)n2)cc1 [Sulfaclozine] |
| 4.11 | CC(=O)Nc1ccc(S(=O)(=O)Nc2ncccn2)cc1 [Sulfadiazine-N4-Acetyl] |
| 3.48 | Nc1ccc(S(=O)(=O)Nc2ncccn2)cc1 [Sulfadiazine] |
| 5.6 | COc1cc(NS(=O)(=O)c2ccc(N)cc2)nc(OC)n1 [Sulfadimethoxine] |
| 4.31 | Cc1cc(C)nc(NS(=O)(=O)c2ccc(N)cc2)n1 [Sulfadimidine (Sulfamethazine)] |
| 4.75 | COc1ncnc(NS(=O)(=O)c2ccc(N)cc2)c1OC [Sulfadoxine] |
| 1.93 | NC(N)=NS(=O)(=O)c1ccc(N)cc1 [Sulfaguanidine] |
| 4.44 | COc1nccnc1NS(=O)(=O)c1ccc(N)cc1 [Sulfalene] |
| 3.95 | Cc1ccnc(NS(=O)(=O)c2ccc(N)cc2)n1 [Sulfamerazine] |
| 4.18 | COc1cnc(NS(=O)(=O)c2ccc(N)cc2)nc1 [Sulfameter (sulfumetin)] |
| 4.21 | Cc1nnc(NS(=O)(=O)c2ccc(N)cc2)s1 [Sulfamethizole] |
| 4.39 | Cc1cc(NS(=O)(=O)c2ccc(N)cc2)on1 [Sulfamethoxazole (Impurity F)] |
| 4.54 | Cc1cc(NS(=O)(=O)c2ccc(NO)cc2)no1 [Sulfamethoxazole hydroxylamine] |
| 5.28 | CC(=O)Nc1ccc(S(=O)(=O)Nc2cc(C)on2)cc1 [Sulfamethoxazole-N4-Acetyl  (Impurity A)] |
| 4.6 | Cc1cc(NS(=O)(=O)c2ccc(N)cc2)no1 [Sulfamethoxazole] |
| 4.38 | COc1ccc(NS(=O)(=O)c2ccc(N)cc2)nn1 [Sulfamethoxypyridazine] |
| 4.75 | COc1cc(NS(=O)(=O)c2ccc(N)cc2)ncn1 [Sulfamonomethoxine] |

| LC retention time [min] | Structure (SMILES) |
| --- | --- |
| 4.11 | Cc1nc(NS(=O)(=O)c2ccc(N)cc2)oc1C [Sulfamoxole] |
| 3.8 | Nc1ccc(S(=O)(=O)Nc2ccccn2)cc1 [Sulfapyridine] |
| 5.81 | Nc1ccc(S(=O)(=O)Nc2cnc3ccccc3n2)cc1 [Sulfaquinoxaline] |
| 6.61 | O=C(O)c1cc(N=Nc2ccc(S(=O)(=O)Nc3ccccn3)cc2)ccc1O [Sulfasalazine] |
| 4.24 | CC(=O)Nc1ccc(S(=O)(=O)Nc2nccs2)cc1 [Sulfathiazole-N4-Acetyl] |
| 4.66 | O=C(O)c1ccccc1C(=O)Nc1ccc(S(=O)(=O)Nc2nccs2)cc1 [Sulfathiazole-Phthalyl] |
| 3.63 | Nc1ccc(S(=O)(=O)Nc2nccs2)cc1 [Sulfathiazole] |
| 7.94 | O=C1C(CCS(=O)c2ccccc2)C(=O)N(c2ccccc2)N1c1ccccc1 (stereo unspecified) [Sulfinpyrazone] |
| 4.71 | Cc1noc(NS(=O)(=O)c2ccc(N)cc2)c1C [Sulfisoxazole] |
| 8.24 | CC1=C(CC(=O)O)c2cc(F)ccc2C1=Cc1ccc(S(C)=O)cc1 (stereo unspecified) [Sulindac] |
| 3.18 | CCN1CCCC1CNC(=O)c1cc(S(N)(=O)=O)ccc1O (stereo unspecified) [Sulpiride-O-Desmethyl] |
| 2.94 | CCN1CCCC1CNC(=O)c1cc(S(N)(=O)=O)ccc1OC (stereo unspecified) [Sulpiride] |
| 4.11 | NS(=O)(=O)c1ccc(N2CCCCS2(=O)=O)cc1 [Sulthiame] |
| 3.43 | CNS(=O)(=O)Cc1ccc2[nH]cc(CCN(C)C)c2c1 [Sumatriptan] |
| 9.61 | CCCCC1(COC(=O)CCC(=O)O)C(=O)N(c2ccccc2)N(c2ccccc2)C1=O [Suxibuzone] |
| 13.7 | O=S(O)(O)=S [THJ] |
| 4.77 | Nc1c2c(nc3ccccc13)CCCC2 [Tacrine] |
| 7.84 | NN1CC(=O)N2C(Cc3c([nH]c4ccccc34)C2c2ccc3c(c2)OCO3)C1=O (stereo unspecified) [Tadalafil-Amino] |
| 7.99 | O=C1NCC(=O)N2C1Cc1c([nH]c3ccccc13)C2c1ccc2c(c1)OCO2 (stereo unspecified) [Tadalafil-Nor] |

| Structure (SMILES) | LC retention time [min] |
| --- | --- |
| CNC(CC(C)C)C1(c2ccc(Cl)cc2)CCC1 (stereo unspecified) [Sibutramine-Nor] | 8.68 |
| CC(C)CC(N(C)C)C1(c2ccc(Cl)cc2)CCC1 (stereo unspecified) [Sibutramine] | 8.66 |
| CC1CCCCC1NC(=O)Nc1ccccc1 (stereo unspecified) [Siduron] | 9.37 |
| CCNc1nc(Cl)nc(NCC)n1 [Simazine] | 7.07 |
| CCNc1nc(NCC)nc(SC)n1 [Simetryn] | 8.14 |
| CCC1CCCC(OC2CCC(N(C)C)C(C)O2)C(C)C(=O)C2=CC3C(C=CC4CC(OC5OC(C)C(OC)C(OC)C5OC)CC43)C2CC(=O)O1 (stereo unspecified) [Spinosyn A] | 11.2 |
| Cc1cc(C)c(C2=C(OC(=O)CC(C)(C)C)C3(CCCC3)OC2=O)c(C)c1 [Spiromesifen] | 12.8 |
| CCCN(CC)CC1COC2(CCC(C(C)(C)C)CC2)O1 (stereo unspecified) [Spiroxamine] | 9.32 |
| CC12Cc3cn[nH]c3CC1CCC1C2CCC2(C)C1CCC2(C)O (stereo unspecified) [Stanozolol] | 11.3 |
| O=C1CC2OCC=C3CN4CCC56c7ccccc7N1C5C2C3CC46 (stereo unspecified) [Strychnine] | 4.16 |
| CS(=O)(=O)c1ccc(C(=O)C2C(=O)CCCC2=O)c(Cl)c1 [Sulcotrione] | 5 |
| COC(=O)c1ccccc1S(=O)(=O)NC(=O)Nc1nc(C)cc(C)n1 [Sulfometuron-methyl] | 6.92 |
| CCOP(=S)(OCC)OP(=S)(OCC)OCC [Sulfotepp] | 10.8 |
| CCCSP(=S)(OCC)Oc1ccc(SC)cc1 (stereo unspecified) [Sulprofos (Bolstar)] | 12.8 |
| CNCC(O)c1ccc(O)cc1 (stereo unspecified) [Synephrine] | 1.6 |
| CNC(C)C(O)c1ccc(O)cc1 (stereo unspecified) [Synphrine-Methyl] | 2.05 |
| CCOP(=O)(OCC)OP(=O)(OCC)OCC [TEPP] | 6.49 |
| CCCCCc1cc(O)c2c(c1)OC(C)(C)C1CCC(CO)=CC21 (stereo unspecified) [THC-OH. 11-OH-THC] | 12.5 |
| O=C(Nc1cccc2cccnc12)c1nn(CCCCCF)c2ccccc12 [THJ-5F] | 12.5 |
| CCCCCn1nc(C(=O)c2cccc3ccccc23)c2ccccc21 [THJ-018] | 13.1 |
| O=C(c1cccc2ccccc12)c1nn(CCCCCF)c2ccccc12 [THJ-2201] | 11.9 |
| COc1ccc(CC(C)N)c(OC)c1OC (stereo unspecified) [TMA] | 4.16 |
